Square brackets hold non-standard residues; d marks the D form. Ends that are not written are not given here. * marks the point of attachment. FITC = O=C1OC2(c3ccc(O)cc3Oc3cc(O)ccc32)c2ccc(NC(=S)*)cc21; Stearoyl = CCCCCCCCCCCCCCCCCC(=O)*; Palmitoyl = CCCCCCCCCCCCCCCC(=O)*; Myristoyl = CCCCCCCCCCCCCC(=O)*; Aib = CC(C)(N)C(=O)O; Ahx = NCCCCCC(=O)O

The target of the first series is HSA (Homo sapiens, UniProt P02768). Briefly: Albumin binding affinity by surface plasmon resonance. Particulars: SPR, BIAcoT200 system, HSA. (SPR reads the build-up and loss of mass on a sensor chip optically.)
Chain of HSA (P02768 25-609): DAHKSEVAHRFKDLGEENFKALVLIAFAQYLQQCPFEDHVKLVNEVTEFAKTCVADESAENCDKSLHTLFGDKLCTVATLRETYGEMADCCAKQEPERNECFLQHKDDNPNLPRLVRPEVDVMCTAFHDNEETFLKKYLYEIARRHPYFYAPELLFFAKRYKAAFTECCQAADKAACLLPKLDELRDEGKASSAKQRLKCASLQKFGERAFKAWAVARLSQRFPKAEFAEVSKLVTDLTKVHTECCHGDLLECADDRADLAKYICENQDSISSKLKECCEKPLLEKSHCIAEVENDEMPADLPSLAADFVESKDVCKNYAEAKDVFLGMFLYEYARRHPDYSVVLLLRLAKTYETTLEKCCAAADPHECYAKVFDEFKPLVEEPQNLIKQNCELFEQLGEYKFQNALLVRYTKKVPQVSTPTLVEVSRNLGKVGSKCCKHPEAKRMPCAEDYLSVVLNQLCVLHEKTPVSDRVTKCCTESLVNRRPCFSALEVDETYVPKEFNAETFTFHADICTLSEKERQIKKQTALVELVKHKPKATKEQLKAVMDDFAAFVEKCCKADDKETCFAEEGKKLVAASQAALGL
The substance “{FITC-Ahx}-EK(Myristoyl)YEEYEGGGGSGGGGSFNPRH[Aib]EGTFTSDVSSYLEGQAAKEFIAWLVKGRG (N-terminus assumed) [PES04]” yielded a k a of 1240 M⁻¹ s⁻¹ and a k d of 0.0332 s⁻¹.
The matching figures for “{FITC-Ahx}-EK(Palmitoyl)YEEYEGGGGSGGGGSFNPRH[Aib]EGTFTSDVSSYLEGQAAKEFIAWLVKGRG (N-terminus assumed) [PES05]”: 8900 M⁻¹ s⁻¹ and 0.0722 s⁻¹.
The matching figures for “{FITC-Ahx}-EK(Stearoyl)YEEYEGGGGSGGGGSFNPRH[Aib]EGTFTSDVSSYLEGQAAKEFIAWLVKGRG (N-terminus assumed) [PES06]”: 18800 M⁻¹ s⁻¹ and 0.0922 s⁻¹.
On the same counts, the results for “{FITC-Ahx}-EYEEYEK(Myristoyl)GGGGSGGGGSFNPRH[Aib]EGTFTSDVSSYLEGQAAKEFIAWLVKGRG (N-terminus assumed) [PES19]” are 2500 M⁻¹ s⁻¹ and 0.0222 s⁻¹.
In turn, “{FITC-Ahx}-EYEEYEK(Palmitoyl)GGGGSGGGGSFNPRH[Aib]EGTFTSDVSSYLEGQAAKEFIAWLVKGRG (N-terminus assumed) [PES20]” displayed a k a of 3180 M⁻¹ s⁻¹ and a k d of 0.0534 s⁻¹.
The matching figures for “{FITC-Ahx}-EYEEYEK(Stearoyl)GGGGSGGGGSFNPRH[Aib]EGTFTSDVSSYLEGQAAKEFIAWLVKGRG (N-terminus assumed) [PES21]”: 11400 M⁻¹ s⁻¹ and 0.036 s⁻¹.
On the same counts, the results for “{FITC-Ahx}-EYEEYK(Myristoyl)EGGGGSGGGGSFNPRH[Aib]EGTFTSDVSSYLEGQAAKEFIAWLVKGRG (N-terminus assumed) [PES16]” are 11000 M⁻¹ s⁻¹ and 0.0192 s⁻¹.
The matching figures for “{FITC-Ahx}-EYEEYK(Palmitoyl)EGGGGSGGGGSFNPRH[Aib]EGTFTSDVSSYLEGQAAKEFIAWLVKGRG (N-terminus assumed) [PES17]”: 12000 M⁻¹ s⁻¹ and 0.0627 s⁻¹.
“{FITC-Ahx}-EYEEYK(Stearoyl)EGGGGSGGGGSFNPRH[Aib]EGTFTSDVSSYLEGQAAKEFIAWLVKGRG (N-terminus assumed) [PES18]” displayed a k a of 11400 M⁻¹ s⁻¹ and a k d of 0.036 s⁻¹.
On the same counts, the results for “{FITC-Ahx}-EYEK(Myristoyl)EYEGGGGSGGGGSFNPRH[Aib]EGTFTSDVSSYLEGQAAKEFIAWLVKGRG (N-terminus assumed) [PES10]” are 12900 M⁻¹ s⁻¹ and 0.0328 s⁻¹.
On the same counts, the results for “{FITC-Ahx}-EYEK(Palmitoyl)EYEGGGGSGGGGSFNPRH[Aib]EGTFTSDVSSYLEGQAAKEFIAWLVKGRG (N-terminus assumed) [PES11]” are 8380 M⁻¹ s⁻¹ and 0.0782 s⁻¹.
The substance “{FITC-Ahx}-EYEK(Stearoyl)EYEGGGGSGGGGSFNPRH[Aib]EGTFTSDVSSYLEGQAAKEFIAWLVKGRG (N-terminus assumed) [PES12]” gave a k a of 21700 M⁻¹ s⁻¹ and a k d of 0.0531 s⁻¹.
On the same counts, the results for “{FITC-Ahx}-EYK(Myristoyl)EEYEGGGGSGGGGSFNPRH[Aib]EGTFTSDVSSYLEGQAAKEFIAWLVKGRG (N-terminus assumed) [PES07]” are 8240 M⁻¹ s⁻¹ and 0.0632 s⁻¹.

Staying with this series, now noted: human, HSA (human serum albumin), surface plasmon resonance.
One may read the Kd as the constant that tells how readily two partners part at equilibrium. Low values mean a tighter complex, high ones a looser complex. “{FITC-Ahx}-EK(Myristoyl)YEEYEGGGGSGGGGSFNPRH[Aib]EGTFTSDVSSYLEGQAAKEFIAWLVKGRG (N-terminus assumed) [PES04]” displayed a Kd of 26.7 µM.
The same measure, in the same setting: the figure for “{FITC-Ahx}-EK(Palmitoyl)YEEYEGGGGSGGGGSFNPRH[Aib]EGTFTSDVSSYLEGQAAKEFIAWLVKGRG (N-terminus assumed) [PES05]” is 8.11 µM; for “{FITC-Ahx}-EK(Stearoyl)YEEYEGGGGSGGGGSFNPRH[Aib]EGTFTSDVSSYLEGQAAKEFIAWLVKGRG (N-terminus assumed) [PES06]” it is 4.9 µM; for “{FITC-Ahx}-EYEEYEK(Myristoyl)GGGGSGGGGSFNPRH[Aib]EGTFTSDVSSYLEGQAAKEFIAWLVKGRG (N-terminus assumed) [PES19]” it is 8.73 µM.
“{FITC-Ahx}-EYEEYEK(Palmitoyl)GGGGSGGGGSFNPRH[Aib]EGTFTSDVSSYLEGQAAKEFIAWLVKGRG (N-terminus assumed) [PES20]”: the dissociation constant Kd amounted to 16.8 µM.
Same read-out and setting: the figure for “{FITC-Ahx}-EYEEYEK(Stearoyl)GGGGSGGGGSFNPRH[Aib]EGTFTSDVSSYLEGQAAKEFIAWLVKGRG (N-terminus assumed) [PES21]” is 3.16 µM; for “{FITC-Ahx}-EYEEYK(Myristoyl)EGGGGSGGGGSFNPRH[Aib]EGTFTSDVSSYLEGQAAKEFIAWLVKGRG (N-terminus assumed) [PES16]” it is 1.74 µM.
“{FITC-Ahx}-EYEEYK(Palmitoyl)EGGGGSGGGGSFNPRH[Aib]EGTFTSDVSSYLEGQAAKEFIAWLVKGRG (N-terminus assumed) [PES17]”: the dissociation constant (Kd) was 5.21 µM. Against the preceding substance, the Kd is about 3-fold higher.
The substance “{FITC-Ahx}-EYEEYK(Stearoyl)EGGGGSGGGGSFNPRH[Aib]EGTFTSDVSSYLEGQAAKEFIAWLVKGRG (N-terminus assumed) [PES18]” showed a Kd of 3.16 µM. This Kd is about 1.6-fold lower than that of the substance before.
Still for that read-out and setting: the figure for “{FITC-Ahx}-EYEK(Myristoyl)EYEGGGGSGGGGSFNPRH[Aib]EGTFTSDVSSYLEGQAAKEFIAWLVKGRG (N-terminus assumed) [PES10]” is 2.54 µM.
On the same count and under the same terms, the figure for “{FITC-Ahx}-EYEK(Palmitoyl)EYEGGGGSGGGGSFNPRH[Aib]EGTFTSDVSSYLEGQAAKEFIAWLVKGRG (N-terminus assumed) [PES11]” is 9.33 µM; for “{FITC-Ahx}-EYEK(Stearoyl)EYEGGGGSGGGGSFNPRH[Aib]EGTFTSDVSSYLEGQAAKEFIAWLVKGRG (N-terminus assumed) [PES12]” it is 2.45 µM.
The same measure, in the same setting: the figure for “{FITC-Ahx}-EYK(Myristoyl)EEYEGGGGSGGGGSFNPRH[Aib]EGTFTSDVSSYLEGQAAKEFIAWLVKGRG (N-terminus assumed) [PES07]” is 7.61 µM.
